Experimental data taken from patent publication EP1175907A1, “REMEDIES” (Takara Shuzo Co, Ltd., priority 1999, dated 2000).

What was measured:
Assay type in all cases: cell-based, human
[1] = system: HL60 cells; assay: HGF in medium and cells of HL60 cells with or without TPA; details: 10 nM TPA alone, 24 h
Method: HL60 cells (human promyelocytic leukemia cell line) cultured in an RPMI 1640 medium containing 10% fetal bovine serum were suspended in an RPMI 1640 medium containing 1% fetal bovine serum so as to have a concentration of 5 × 10^5 cells/ml, and added into each well of a 48-well cell culture plate in a volume of 500 µl each. There after, 10 nM TPA was added thereto, and each sample was further added, and the cells were then cultured for 24 hours. Also, the same steps were carried out for the group added with only the sample without adding TPA. The medium was collected, and the amount of HGF in the medium was determined by using the Quantikine Human Hepatocyte Growth Factor (HGF) ELISA Kit. Further, the cells were washed with PBS, and thereafter dissolved in 500 µl of a cytolytic buffer (50 mM HEPES, pH 7.4; 10 mM EDTA; 0.1% Triton X100; 1 mM PMSF; 1 µg/ml pepstatin A and 1 µg/ml leupeptin). Further, in order to completely dissolve the cells, the mixture was subjected to sonication treatment, and then centrifuged, to give a supernatant (cell extract). The amount of HGF in the cells was determined in the same manner as that of the concentration of HGF in the medium. 7-12SFd-F prepared in item (3) of Reference Example 2 was added so as to have a final concentration of 1, 10 or 100 µg/ml. As a negative control, distilled water was added in the same volume as that of the sample. Each experiment was carried out three times, and an average value was taken.

[2] = system: HL60 cells; assay: HGF mRNA in HL60 cells (RT-PCR); details: 10 nM TPA, at any time periods (4 to 10 hours)
Method: HL60 cells (human promyelocytic leukemia cell line) cultured in an RPMI 1640 medium containing 10% fetal bovine serum were suspended in an RPMI 1640 medium containing 1% fetal bovine serum so as to have a concentration of 5 × 10^5 cells/ml, and added into each well of a 6-well cell culture plate in a volume of 2 ml each. Thereafter, 10 nM TPA and 7-12SFd-F prepared in item (3) of Reference Example 2 were added each so as to have a final concentration of 100 µg/ml. Also, the same steps were carried out for the group added with only 7-12SFd-F without adding TPA. The cells were further cultured, and a whole RNA was extracted on Hours 4, 6, 8, and 10. In the extraction of the whole RNA, RNeasy Mini Kit (manufactured by QIAGEN) was used. RT-PCR was carried out entirely in the same manner as that in Example 14, except for changing the cycles for PCR to 32 cycles. After the reaction, the reaction mixture was subjected to electrophoresis on a 2% agarose gel and ethidium bromide staining, and the gel was observed under UV irradiation.

[3] = system: NHDF cells; assay: HGF in medium and cells of NHDF cells with or without TPA; details: 10 nM TPA alone
[4] = system: Hs68 cells; assay: HGF in medium and cells of Hs68 cells with or without TPA; details: 10 nM TPA alone
Method: Hs68 cells (human newborn foreskin fibroblasts: manufactured by DAINIPPON PHARMACEUTICAL CO., LTD., ATCC CRL-1635) cultured in a DMEM medium containing 10% fetal bovine serum were suspended in the DMEM medium containing 10% fetal bovine serum so as to have a concentration of 1 × 10^5 cells/ml, and added into each well of a 48-well cell culture plate in a volume of 500 µl each. The cells were cultured for 24 hours. Thereafter, the medium was exchanged for a DMEM medium containing 1% fetal bovine serum, and thereto were added 10 nM TPA and each sample. Also, the same steps were carried out for the group added with only the sample without adding TPA. The medium was collected, and the amount of HGF in the medium was determined by using Quantikine Human Hepatocyte Growth Factor (HGF) ELISA Kit. Further, the cells were washed with PBS, and thereafter dissolved in 500 µl of a cytolytic buffer (50 mM HEPES, pH 7.4; 10 mM EDTA; 0.1% Triton X100; 1 mM PMSF; 1 µg/ml pepstatin A and 1 µg/ml leupeptin). Further, in order to completely dissolve the cells, the mixture was subjected to sonication treatment, and then centrifuged, to give a supernatant (cell extract). The amount of HGF in the cell was determined in the same manner as that of the concentration of HGF in the medium. 7-12SFd-F prepared in item (3) of Reference Example 2 was added so as to have a final concentration of 0.1, 1, 10 or 100 µg/ml. As a negative control, distilled water was added in the same volume as that of the sample. Each experiment was carried out three times, and an average value was taken. In the TPA non-added group, a remarkable production of HGF could not be found. […] In addition, the increase in the amount of HGF when mRNA is increased as described above was very remarkable, as compared to the case where the amount of mRNA is small with no TPA treatment. It was clarified from the above that 7-12SFd-F remarkably promotes the freeing and production of HGF in a case where transcription of mRNA is promoted, so that a large amount of HGF is required.

[5] = system: NHDF cells; assay: HGF mRNA in NHDF cells (RT-PCR); details: 10 nM TPA, at any time periods (4 to 10 hours)
Method: NHDF cells (normal human dermal fibroblasts) cultured in a DMEM medium containing 10% fetal bovine serum were suspended in the DMEM medium containing 10% fetal bovine serum so as to have a concentration of 2.5 × 10^5 cells/ml, and added into each well of a 6-well cell culture plate in a volume of 2 ml each. The cells were cultured at 37°C for 24 hours in the presence of 5% CO2. Thereafter, the medium was exchanged for a DMEM medium containing 1% fetal bovine serum, and thereto were added 10 nM tetradecanoylphorbol 13-acetate (TPA: manufactured by Gibco BRL) and 7-12SFd-F prepared in item (3) of Reference Example 2 each so as to have a final concentration of 100 µg/ml. Also, the same steps were carried out for the group added with only 7-12SFd-F without adding TPA. The cells were further cultured, and a whole RNA was extracted on Hours 4, 6, 8 and 10. In the extraction of the whole RNA, RNeasy Mini Kit (QIAGEN) was used. RT-PCR was carried out entirely in the same manner as that in Example 14, except for changing the cycles for PCR to 28 cycles. After the reaction, the reaction mixture was subjected to electrophoresis on a 2% agarose gel and ethidium bromide staining, and the gel was observed under UV irradiation.

## CCCCCCCCCCCCCC(=O)O[C@@H]1[C@@H](C)[C@@]2(O)[C@@H](C=C(CO)C[C@]3(O)C(=O)C(C)=C[C@@H]23)[C@@H]2C(C)(C)[C@]12OC(C)=O [TPA, 12-O-tetradecanoylphorbol 13-acetate]
[1]
  Amount of HGF in Cells: 83.37 pg/Well
  Amount of HGF in Medium: 261.60 pg/Well
  Total Amount of HGF: 344.97 pg/Well
[2]
  amount of HGF mRNA: remarkably increased
[3]
  Amount of HGF in Cells: 0.24 ng/Well
  Amount of HGF in Medium: 0.39 ng/Well
  Total Amount of HGF: 0.63 ng/Well
[4]
  Amount of HGF in Cells: 155.65 pg/Well
  Amount of HGF in Medium: 65.54 pg/Well
  Total Amount of HGF: 221.19 pg/Well
[5]
  amount of HGF mRNA: remarkably increased
